Measurements: patent publication EP4803159A2, “CONJUGATE OF SALICYLIC ACID AND PEPTIDE” (Caregen Co., Ltd., priority 2017, dated 2018)

Columns and labels:
[1] = system: HaCaT keratinocyte cell line; test: Keratinocyte growth, sulforhodamine B (SRB) colorimetric assay; format: cell-based; settings: 50 µM, 72 hours, serum-free medium, SRB absorbance at 560 nm, FIG. 2B
Experimental: To analyze growth factor-like efficacy and inhibitory efficacy of the compounds synthesized in Example <1-2>, a sulforhodamine B (SRB Sigma) colorimetric assay was performed using a HaCaT keratinocyte cell line (Korean Cell Line Bank) in accordance with a method of Rizzino, et al. (Cancer Res. 48:4266(1988))
HaCaT keratinocyte cell line was seeded in a 96-well plate at a density of 3,000 cells per well, and then cultured in Dulbecco's modified Eagle's medium (DMEM, Gibco, USA) containing 10% fetal bovine serum (FBS, Sigma) for 24 hours under conditions of 37°C and 5% CO2. The cultured cell line was detached from the bottom of the culture plate using a 1% trypsin solution, and only cell precipitate was collected by centrifugation. The cell precipitate was suspended in DMEM without FBS, and then cultured for 24 hours under conditions of 37°C and 5% CO2. 24 hours later, the medium was replaced by the same medium from which serum was completely removed. A blank sample in which the cell precipitate was dissolved sterile in 10% DMSO was prepared for standardization. Each of the compound 1 to the compound 4 (50 µM) of the present disclosure, salicylic acid (50 µM), and EGF (100 nM) as a positive control were treated. Incubation was carried out under the same conditions as above for 72 hours. […] Absorbance at UV 560 nm was measured to determine cell viability.

[2] = system: TNF-a, IL-6, IL-1b, and COX-2; test: Anti-inflammatory effect, Propionibacterium acnes-induced inflammatory cytokine mRNA expression in keratinocytes (RT-PCR); format: cell-based; settings: keratinocyte, 50 µg/ml Propionibacterium acnes, 50 µM compound, 24 hours; FIG. 8
Experimental: Anti-inflammatory effects of the compounds of the present disclosure were examined using Propionibacterium acnes. To this end, keratinocyte was seeded in a 6-well plate at a density of 300,000 cells per well, and then incubated in a DMEM culture medium (Gibco, USA) containing 10% FBS for 24 hours under conditions of 37°C and 5% CO2. After replacing the medium by a fresh medium, the cells were treated with 50 µg/ml of Propionibacterium acnes, and then the treated Propionibacterium acnes was treated with each 50 µM of the compound 1 and the compound 3 of the present disclosure and salicylic acid used as the positive control, followed by incubation for 24 hours under the same conditions as above. RNA was isolated from the cells, and cDNA was synthesized using a cDNA synthesis kit (Intron, Korea). PCR premix (Intron, Korea) and primers for each of TNF-a, IL-6, IL-1b, and COX-2 in Table 3 below were used to perform PCR. mRNA levels of TNF-a, IL-6, IL-1b and COX-2 were determined by 5% agarose gel electrophoresis.

[3] = distilled water, concentration of 10 mg/ml; FIG. 1

O=C(O)c1ccccc1O [salicylic acid, 2-hydroxybenzoic acid]
growth of keratinocytes [1]: inhibited growth of keratinocytes due to toxicity
expression of inflammatory cytokines induced by Propionibacterium acnes [2]: hardly inhibited expression
solubility in water [3]: hardly dissolved in water
